Assay results as given in patent publication US11814352B2, “Salts formed by 2-(1-acyloxy-n-pentyl) benzoic acid and basic amino acid or aminoguanidine, and preparation method and application thereof” (JIANGSU KANION PHARMACEUTICAL CO., LTD., priority 2018, dated 2023).
≈ marks a conversion by molar mass, not a printed value. Where “and” joins values, the source holds several entries; their conditions need not be identical. Identical values can stand only once. Like-named read-outs stand apart in the source and are kept apart here. Marks after values point to notes of the source that are not given here.

Experiments:
[1] = biological target: hERG potassium channel of CHO-hERG cells (Homo sapiens, UniProt Q12809); test: Effect on hERG potassium channel (automatic patch clamp)
Sequence of hERG potassium channel of CHO-hERG cells (Q12809 whole entry): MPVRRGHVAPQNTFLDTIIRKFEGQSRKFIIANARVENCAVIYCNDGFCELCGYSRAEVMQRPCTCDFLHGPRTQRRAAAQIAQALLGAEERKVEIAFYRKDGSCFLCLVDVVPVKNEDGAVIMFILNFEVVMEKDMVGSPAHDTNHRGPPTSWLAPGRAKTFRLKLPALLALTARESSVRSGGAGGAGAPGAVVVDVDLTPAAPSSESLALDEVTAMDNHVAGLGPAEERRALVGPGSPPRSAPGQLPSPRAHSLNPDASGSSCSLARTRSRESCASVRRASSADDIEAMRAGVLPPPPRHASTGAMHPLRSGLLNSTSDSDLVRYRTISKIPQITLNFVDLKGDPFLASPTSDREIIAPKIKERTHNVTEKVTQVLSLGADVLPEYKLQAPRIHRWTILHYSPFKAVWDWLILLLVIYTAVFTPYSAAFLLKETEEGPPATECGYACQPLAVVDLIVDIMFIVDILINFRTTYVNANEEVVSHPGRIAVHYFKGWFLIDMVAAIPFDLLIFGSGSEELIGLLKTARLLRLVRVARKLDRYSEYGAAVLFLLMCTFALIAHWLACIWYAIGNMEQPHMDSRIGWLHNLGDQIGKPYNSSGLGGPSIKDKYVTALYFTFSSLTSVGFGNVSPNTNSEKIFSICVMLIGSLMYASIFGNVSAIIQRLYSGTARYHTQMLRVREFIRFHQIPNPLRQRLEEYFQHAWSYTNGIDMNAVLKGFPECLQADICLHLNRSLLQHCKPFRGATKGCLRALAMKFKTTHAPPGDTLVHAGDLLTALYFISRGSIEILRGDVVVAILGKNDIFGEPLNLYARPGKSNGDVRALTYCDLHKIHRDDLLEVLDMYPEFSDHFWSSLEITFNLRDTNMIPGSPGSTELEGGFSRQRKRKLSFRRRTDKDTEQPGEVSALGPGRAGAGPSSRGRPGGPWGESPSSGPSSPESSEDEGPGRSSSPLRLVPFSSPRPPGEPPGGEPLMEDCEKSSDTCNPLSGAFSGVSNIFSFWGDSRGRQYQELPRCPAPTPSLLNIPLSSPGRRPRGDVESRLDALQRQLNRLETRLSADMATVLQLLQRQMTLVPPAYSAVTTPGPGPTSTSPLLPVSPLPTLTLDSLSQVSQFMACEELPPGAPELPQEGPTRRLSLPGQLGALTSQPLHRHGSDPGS

[2] = system: AA induced platelet aggregation; test: In vitro anti-platelet aggregation, AA induced (turbidimetry, PRP); assay type: cell-based, rabbits; conditions: read-out: IC50 AA (1 mM); rabbit PRP, inducer AA 1 mM, 37° C.
[3] = system: histidine-deficient TA97, TA98, TA100 and TA102 strains of Salmonella typhimurium; test: Bacterial reverse mutation test (Ames test); conditions: 0.1-1000 μg/dish, with and without S9
Description: The test bacteria are the histidine-deficient TA97, TA98, TA100 and TA102 strains of Salmonella typhimurium, and the dose range of the test sample is 0.1-1000 μg/dish.

[4] = Preliminary stability of sample solution in water and methanol; assay type: physicochemical; conditions: 1 mg/mL stock prepared 2018 Jun. 25, analysed Jun. 29, Jul. 2, Jul. 7
Description: 2018 Jun. […] For each sample test, the stock solution was taken and diluted freshly.
2018 Jun. 29 200 μL of the stock solution was pipetted, 3800 μL of a mobile phase in the initial ratio was added, and 10 μL of a test sample with a concentration of 50 μg/mL was prepared for injection and analysis.
2018 Jul. 2 200 μL of the stock solution was pipetted, 3800 μL of a mobile phase in the initial ratio was added, and 10 μL of a test sample with a concentration of 50 μg/mL was prepared for injection and analysis.
2018 Jul. 7 200 μL of the stock solution was pipetted, 3800 μL of a mobile phase in the initial ratio was added, and 10 μL of a test sample with a concentration of 50 μg/mL was prepared for injection and analysis.
29, 2018 Jul. 2, and 2018 Jul.

[5] = system: ICR mice; test: Acute toxicity test, tail vein injection in mice; conditions: for Number of deaths (quantity): 10 animals, 14 days
[6] = Acute toxicity test, tail vein injection in mice; conditions: female, ICR, mouse, in vivo, iv, LD50 value, Bliss method
[7] = Solubility test (saturated solubility in water); assay type: physicochemical; conditions: 25±2° C.; for solubility at 30 min: 25 °C, thermodynamic from solid
Description: Test method: 10 mg of a test sample (solid was ground into fine powder) was weighed and added to a certain amount of solvent at 25±2° C. (the temperature of a water bath is controlled at 25° C.), and the solution was shaken vigorously for 30 s every 5 min. The dissolution was observed within 30 min. When there were no visible solute particles or droplets, the test sample was regarded as completely dissolved.

[8] = system: arteriovenous bypass thrombosis in rats; test: Effect on arteriovenous bypass thrombosis in rats; assay type: in vivo, SD rats; conditions: 10 mg/kg/day tail vein 7 days; for inhibition at 10 mg/kg/day: Rattus norvegicus, 168 h, vs model group
Outline: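 Male SD rats (250-280 g) dosed 10 mg/kg/day i.v. (tail vein, saline with 1% DMSO) for 7 days, n=8; vehicle controls. Two hours after the last dose, under pentobarbital, a carotid–jugular shunt holding a weighed suture ran for 15 min; thrombus wet and dry (24 h air-dried) weights taken.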

[9] = system: ADP induced platelet aggregation; test: In vitro anti-platelet aggregation, ADP induced (turbidimetry, PRP); assay type: cell-based, rabbits; conditions: read-out: IC50 ADP (10 μM); rabbit PRP, inducer ADP 10 μM, 37° C.

CCCC[C@H](OC(C)=O)c1ccccc1C(=O)O [I1s, L-Arginine (S)-2-(1-Acetoxy-n-Pentyl) Benzoate]
IC50 [1]: > 40 µM | IC50 [2]: 160 ± 20 µM | Ames test result (mutagenicity) [3]: negative | Stability of the sample solution in CH3OH [4]: basically stable | Stability of the sample solution in H2O [4]: basically stable | Symptoms of poisoning ([5]; higher dose in the tail vein): convulsions and decreased activity | Body weight D 1 ([5]; i.v. 700 mg/kg): 19.4 ± 0.6 g | Body weight D 7 ([5]; i.v. 700 mg/kg): 21.0 ± 0.6 g | Body weight D 14 ([5]; i.v. 700 mg/kg): 22.3 ± 0.7 g | Number of deaths (quantity) ([5]; i.v. 700 mg/kg): 1 | Body weight D 1 ([5]; i.v. 900 mg/kg): 19.8 ± 0.5 g | Body weight D 7 ([5]; i.v. 900 mg/kg): 20.9 ± 0.6 g | Body weight D 14 ([5]; i.v. 900 mg/kg): 22.2 ± 0.6 g | Number of deaths (quantity) ([5]; i.v. 900 mg/kg): 2 | Body weight D 1 ([5]; i.v. 1100 mg/kg): 19.4 ± 0.6 g | Body weight D 7 ([5]; i.v. 1100 mg/kg): 21.0 ± 0.5 g | Body weight D 14 ([5]; i.v. 1100 mg/kg): 22.0 ± 0.5 g | Number of deaths (quantity) ([5]; i.v. 1100 mg/kg): 4 | Body weight D 1 ([5]; i.v. 1300 mg/kg): 19.5 ± 0.4 g | Body weight D 7 ([5]; i.v. 1300 mg/kg): 20.8 ± 0.6 g | Body weight D 14 ([5]; i.v. 1300 mg/kg): 22.1 ± 0.6 g | Number of deaths (quantity) ([5]; i.v. 1300 mg/kg): 6 | Body weight D 1 ([5]; i.v. 1500 mg/kg): 19.9 ± 0.2 g | Body weight D 7 ([5]; i.v. 1500 mg/kg): 21.0 g | Body weight D 14 ([5]; i.v. 1500 mg/kg): 23.6 g | Number of deaths (quantity) ([5]; i.v. 1500 mg/kg): 9 | LD50 at 14 days [6]: 1120 mg/kg | LD50 at 14 days ([6]; interval in parentheses): 975 to 1290 mg/kg | solubility at 30 min ([7]; read-out: Saturated solubility in H2O, Mean): 136 mg/mL (≈ 544 mM) | solubility at 30 min ([7]; read-out: Saturated solubility in H2O, dissolved sample amount (single determinations)): 134 mg/mL (≈ 535 mM) | Saturated solubility in H2O, dissolved sample amount (single determinations) [7]: 134.24 mg/mL and 138.23 mg/mL and 138.40 mg/mL | Dry weight of thrombus ([8]; 2 h after last dose): 5.52 ± 0.44 | Wet weight of thrombus ([8]; 2 h after last dose): 20.23 ± 1.25**^ | inhibition at 10 mg/kg/day ([8]; read-out: Inhibition rate (dry weight of thrombus)): 45% | inhibition at 10 mg/kg/day ([8]; read-out: Inhibition rate (wet weight of thrombus)): 44.1% | IC50 [9]: 720 ± 80 µM
